From the supplement of paper PMC11451515

Tests used:
Details in all cases: 48 h
[1] = tested on: NOMO1; assay: cell viability relative to DMSO control; higher = less cytotoxic
In short: (§1)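 NOMO1, SEM and P12-Ichikawa leukemia cells spent at least four passages adapting to each medium before use. They were seeded at 500 cells/well (NOMO1, SEM) or 1000 cells/well (P12-Ichikawa) in 5 μl in 1536-well plates and pin-dosed with library compounds in DMSO at 11 threefold steps from 47 μM down to 0.79 nM. After 48 h at 37°C, CellTiter-Glo One luminescence was read. Viability is reported as a percentage of the DMSO wells on each plate, with cell-free wells as background.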

[2] = tested on: P12-Ichikawa; assay: as above
In short: as §1

[3] = tested on: SEM cells; assay: as above
In short: as §1

[4] = tested on: P12-Ichikawa; assay: AUC of viability dose-response curve (% viability x log10 dose units); higher = less sensitive
In short: (§2)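 Over 48 h at 37°C, leukemia cells in 1536-well plates (500 or 1000 cells/well), adapted to each medium, received library compounds in DMSO at 11 threefold doses from 47 μM to 0.79 nM. CellTiter-Glo One luminescence, normalised per plate to DMSO and cell-free wells, was fitted by a four-parameter log-logistic function of log10 dose. The area under the curve was then integrated by trapezoidal rule, after scaling curves above full viability and removing those that failed quality control.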

[5] = tested on: SEM cells; assay: as above
In short: as §2

[6] = tested on: NOMO1; assay: as above
In short: as §2

[7] = RPMI 5 mM glucose + 10% FBS, 0.000781 µM
[8] = RPMI 5 mM glucose + 10% FBS, 0.00234 µM
[9] = RPMI 5 mM glucose + 10% FBS, 0.00702 µM
[10] = RPMI 5 mM glucose + 10% FBS, 0.0211 µM
[11] = RPMI 5 mM glucose + 10% FBS, 0.0632 µM
[12] = RPMI 5 mM glucose + 10% FBS, 0.19 µM
[13] = RPMI 5 mM glucose + 10% FBS, 0.569 µM
[14] = RPMI 5 mM glucose + 10% FBS, 1.71 µM
[15] = RPMI 5 mM glucose + 10% FBS, 5.12 µM
[16] = RPMI 5 mM glucose + 10% FBS, 15.4 µM
[17] = RPMI 5 mM glucose + 10% FBS, 46.1 µM
[18] = RPMI 5 mM glucose + 10% dialyzed FBS, 0.000781 µM
[19] = RPMI 5 mM glucose + 10% dialyzed FBS, 0.00234 µM
[20] = RPMI 5 mM glucose + 10% dialyzed FBS, 0.00702 µM
[21] = RPMI 5 mM glucose + 10% dialyzed FBS, 0.0211 µM
[22] = RPMI 5 mM glucose + 10% dialyzed FBS, 0.0632 µM
[23] = RPMI 5 mM glucose + 10% dialyzed FBS, 0.19 µM
[24] = RPMI 5 mM glucose + 10% dialyzed FBS, 0.569 µM
[25] = RPMI 5 mM glucose + 10% dialyzed FBS, 1.71 µM
[26] = RPMI 5 mM glucose + 10% dialyzed FBS, 5.12 µM
[27] = RPMI 5 mM glucose + 10% dialyzed FBS, 15.4 µM
[28] = RPMI 5 mM glucose + 10% dialyzed FBS, 46.1 µM
[29] = HPLM + 10% dialyzed FBS, 0.000781 µM
[30] = HPLM + 10% dialyzed FBS, 0.00234 µM
[31] = HPLM + 10% dialyzed FBS, 0.00702 µM
[32] = HPLM + 10% dialyzed FBS, 0.0211 µM
[33] = HPLM + 10% dialyzed FBS, 0.0632 µM
[34] = HPLM + 10% dialyzed FBS, 0.19 µM
[35] = HPLM + 10% dialyzed FBS, 0.569 µM
[36] = HPLM + 10% dialyzed FBS, 1.71 µM
[37] = HPLM + 10% dialyzed FBS, 5.12 µM
[38] = HPLM + 10% dialyzed FBS, 15.4 µM
[39] = HPLM + 10% dialyzed FBS, 46.1 µM
[40] = RPMI 5 mM glucose + 10% dialyzed FBS

CCOC1=CC(=CC=C1C/2=N/[C@@](C)(C3=CC=C(Cl)C=C3)[C@](C)(N2C(=O)N4CCN(CC4)CC(=O)N5CCOCC5)C6=CC=C(Cl)C=C6)C(C)(C)C
cell viability [1, 7]: 93.3% | cell viability [1, 8]: 90.6% | cell viability [1, 9]: 96.3% | cell viability [1, 10]: 105% | cell viability [1, 11]: 112% | cell viability [1, 12]: 121% | cell viability [1, 13]: 98.6% | cell viability [1, 14]: 99.3% | cell viability [1, 15]: 102% | cell viability [1, 16]: 91.6% | cell viability [1, 17]: 97% | cell viability [1, 18]: 92.6% | cell viability [1, 19]: 113% | cell viability [1, 20]: 102% | cell viability [1, 21]: 102% | cell viability [1, 22]: 126% | cell viability [1, 23]: 120% | cell viability [1, 24]: 124% | cell viability [1, 25]: 100% | cell viability [1, 26]: 81.8% | cell viability [1, 27]: 90.1% | cell viability [1, 28]: 86.2% | cell viability [2, 29]: 104% | cell viability [2, 30]: 104% | cell viability [2, 31]: 101% | cell viability [2, 32]: 99.7% | cell viability [2, 33]: 101% | cell viability [2, 34]: 102% | cell viability [2, 35]: 104% | cell viability [2, 36]: 101% | cell viability [2, 37]: 101% | cell viability [2, 38]: 82.9% | cell viability [2, 39]: 87.1% | cell viability [2, 7]: 104% | cell viability [2, 8]: 106% | cell viability [2, 9]: 97.9% | cell viability [2, 10]: 109% | cell viability [2, 11]: 112% | cell viability [2, 12]: 108% | cell viability [2, 13]: 101% | cell viability [2, 14]: 103% | cell viability [2, 15]: 92.2% | cell viability [2, 16]: 97.6% | cell viability [2, 17]: 89.9% | cell viability [2, 18]: 109% | cell viability [2, 19]: 110% | cell viability [2, 20]: 112% | cell viability [2, 21]: 107% | cell viability [2, 22]: 99.2% | cell viability [2, 23]: 102% | cell viability [2, 24]: 107% | cell viability [2, 25]: 97.6% | cell viability [2, 26]: 99.7% | cell viability [2, 27]: 89.8% | cell viability [2, 28]: 97.7% | cell viability [3, 29]: 82.5% | cell viability [3, 30]: 107% | cell viability [3, 31]: 108% | cell viability [3, 32]: 107% | cell viability [3, 33]: 117% | cell viability [3, 34]: 106% | cell viability [3, 35]: 105% | cell viability [3, 36]: 93.5% | cell viability [3, 37]: 81.1% | cell viability [3, 38]: 66% | cell viability [3, 39]: 71% | cell viability [3, 18]: 112% | cell viability [3, 19]: 99.8% | cell viability [3, 20]: 108% | cell viability [3, 21]: 111% | cell viability [3, 22]: 107% | cell viability [3, 23]: 109% | cell viability [3, 24]: 116% | cell viability [3, 25]: 109% | cell viability [3, 26]: 90.2% | cell viability [3, 27]: 65.2% | cell viability [3, 28]: 61.4% | AUC of viability dose-response curve ([4]; HPLM + 10% dialyzed FBS): 465 | AUC of viability dose-response curve ([4]; RPMI 5 mM glucose + 10% FBS): 461 | AUC of viability dose-response curve [4, 40]: 443 | AUC of viability dose-response curve ([5]; HPLM + 10% dialyzed FBS): 436 | AUC of viability dose-response curve ([5]; RPMI 5 mM glucose + 10% FBS): 432 | AUC of viability dose-response curve [5, 40]: 439

CCOC(=O)[C@H](CCc1ccccc1)N[C@@H](C)C(=O)N1[C@H](C(=O)O)C[C@@H]2CCC[C@@H]21
cell viability [2, 29]: 117% | cell viability [2, 30]: 124% | cell viability [2, 31]: 127% | cell viability [2, 32]: 124% | cell viability [2, 33]: 126% | cell viability [2, 34]: 128% | cell viability [2, 35]: 123% | cell viability [2, 36]: 126% | cell viability [2, 37]: 122% | cell viability [2, 38]: 115% | cell viability [2, 39]: 7.37% | cell viability [3, 7]: 110% | cell viability [3, 8]: 116% | cell viability [3, 9]: 117% | cell viability [3, 10]: 143% | cell viability [3, 11]: 147% | cell viability [3, 12]: 127% | cell viability [3, 13]: 135% | cell viability [3, 14]: 113% | cell viability [3, 15]: 121% | cell viability [3, 16]: 89% | cell viability [3, 17]: 7.67% | AUC of viability dose-response curve ([6]; HPLM + 10% dialyzed FBS): 443 | AUC of viability dose-response curve ([6]; RPMI 5 mM glucose + 10% FBS): 449 | AUC of viability dose-response curve [6, 40]: 444 | AUC of viability dose-response curve ([4]; HPLM + 10% dialyzed FBS): 451 | AUC of viability dose-response curve ([4]; RPMI 5 mM glucose + 10% FBS): 451 | AUC of viability dose-response curve [4, 40]: 450 | AUC of viability dose-response curve ([5]; HPLM + 10% dialyzed FBS): 450 | AUC of viability dose-response curve ([5]; RPMI 5 mM glucose + 10% FBS): 440 | AUC of viability dose-response curve [5, 40]: 451

C[C@@H](N)c1ccc(C(=O)Nc2ccnc3[nH]ccc23)cc1
cell viability [3, 29]: 99.4% | cell viability [3, 30]: 115% | cell viability [3, 31]: 122% | cell viability [3, 32]: 121% | cell viability [3, 33]: 121% | cell viability [3, 34]: 144% | cell viability [3, 35]: 136% | cell viability [3, 36]: 118% | cell viability [3, 37]: 118% | cell viability [3, 38]: 105% | cell viability [3, 39]: 40.7% | cell viability [3, 7]: 115% | cell viability [3, 8]: 135% | cell viability [3, 9]: 124% | cell viability [3, 10]: 155% | cell viability [3, 11]: 145% | cell viability [3, 12]: 140% | cell viability [3, 13]: 130% | cell viability [3, 14]: 139% | cell viability [3, 15]: 114% | cell viability [3, 16]: 86.7% | cell viability [3, 17]: 52.5% | AUC of viability dose-response curve ([6]; HPLM + 10% dialyzed FBS): 462 | AUC of viability dose-response curve ([6]; RPMI 5 mM glucose + 10% FBS): 455 | AUC of viability dose-response curve [6, 40]: 455 | AUC of viability dose-response curve ([4]; HPLM + 10% dialyzed FBS): 471 | AUC of viability dose-response curve ([4]; RPMI 5 mM glucose + 10% FBS): 461 | AUC of viability dose-response curve [4, 40]: 466 | AUC of viability dose-response curve ([5]; HPLM + 10% dialyzed FBS): 454 | AUC of viability dose-response curve ([5]; RPMI 5 mM glucose + 10% FBS): 437 | AUC of viability dose-response curve [5, 40]: 455
